The source of these data is patent US8415376B2, “Inhibitors of PI3 kinase” (Amgen Inc., priority 2008, dated 2013).

In one experiment the target is T1, PI3Kβ (Homo sapiens, UniProt P42338).
T1 construct: Full length p110 subunits of PI3K α, β and δ, N-terminally labeled with polyHis tag; polyHis (N); made in house; host or cells: Sf9 insect cells (baculovirus)
Put plainly: In vitro PI3 kinase enzyme assay (PI3K ATP loss), beta. The format is biochemical. The following applies: average if run more than once.

Another experiment deals with T2, PI3Kα (Homo sapiens, UniProt P42336).
T2 construct: Full length p110 subunits of PI3K α, β and δ, N-terminally labeled with polyHis tag; polyHis (N); made in house; host or cells: Sf9 insect cells (baculovirus)
The experiment can be described thus: In vitro PI3 kinase enzyme assay (PI3K ATP loss), alpha. The following applies: average if run more than once; read-out: ATP Loss (PBKα) IC50 μM (Avg). The format is biochemical.

For experiment [1], the system named is phosphorylation of Akt at Ser473. Put plainly: Cell-based phospho-Akt Ser473 assay (HCT116 cell). The following applies: HCT 116 human colon carcinoma cells, IGF-1 stimulated; average. From the text: Cell-Based Phospho-Akt Ser473 Assay (HCT116 Cell)
This assay determines the ability of a compound to inhibit the phosphorylation of […] in Akt using a MSD based sandwich immunoassay (Meso Scale Detection, Meso Scale Discovery (MSD), Gaithersburg, Md.). HCT 116 human colon carcinoma cell lines can be grown in McCoy's 5A growth medium (GIBCO, Carlsbad, Calif.) containing 10% FBS (GIBCO, Carlsbad, Calif.) and X1 Penicillin-streptomycin-glutamine (GIBCO, Carlsbad, Calif.). Prior to the assay, cells can be detached from the culture flask with trypsin, and re-suspended in complete media to give a final concentration of 1.6×10^5 cells per mL. Aliquots (100 μl) of the HCT116 cell suspension can be seeded into each well of a 96 well tissue culture plate to give a final density of 16,000 cells per well. Cells can then be incubated overnight at 37° C.
The following day the cells can be treated with serially diluted test compounds and incubated for 2 hours at 37° C. The culture media on the HCT 116 cells can be replaced with 189 μL McCoys media, supplemented with 0.1% BSA (ICN Biomedicals, Inc., Costa Mesa, Calif.). Compounds can be prepared as either 10 mM or 0.5 mM stock solutions in DMSO, and serially diluted 3 fold in a 10-point dose-response curve to give final concentrations that are 200-fold greater than the desired final test concentration. Aliquots (1 μL) of serially-diluted compounds can be transferred to 96 well tissue culture plates containing the HCT 116 cells. […] As a maximum response control, wells can contain 0.5% DMSO in place of compound. The plates can be mixed at 700 rpm for 2 min to ensure even distribution of the test compound and incubated for 2 hours at 37° C. Cells can then be stimulated with insulin-like growth factor 1 (Sigma, St Louis, Mo.) at final concentration of 100 ng/ml for 15 minutes at 37° C. The media can then be removed and the cells treated with 80 μL cell-lysis buffer (MSD) containing a cocktail of protease and phosphatase inhibitors for one hour at 4° C.
25 μL Cell lysate can then be transferred to pre-blocked MSD assay plates pre-coated with a capture antibody specific for Akt, and the plates can be incubated for 2 hours at room temperature. The cell lysates can then be removed and plates can then be washed four times with 200 μl per well of Tris wash buffer (500 mM Tris, PH 7.5, 1.5 M NaCl, 0.2% Tween-20). Subsequently cells can be incubated for 1 hour at room temperature with a 25 μL solution containing the detection antibody, anti-phospho Akt (Ser 473) labeled with an electrochemiluminescent compound (Meso Scale Discovery SULPHO-TAG™ label, MSD, Gaithersburg, Md.). The detection antibody can be removed and plates can then be washed four times with 200 μL per well of Tris wash buffer. An aliquot of 150 μL of diluted MSD read buffer can then be applied to each well, and the electrochemiluminescent signal can be measured using a MSD SECTOR™ plate reader (Meso Scale Discovery, Gaithersburg, Md.). This instrument measures the intensity of emitted light to determine a quantitative measure of phosphorylated Akt in each well. The dose-response data obtained with each compound can be analyzed and the IC50 inhibition of Akt phosphorylation at Ser473 can be calculated.
Activity data for the compounds tested in the PI3K cell based Akt assay is provided in Table 1 under the column heading HCT116 Cell.

T1 sequence (P42338 whole entry): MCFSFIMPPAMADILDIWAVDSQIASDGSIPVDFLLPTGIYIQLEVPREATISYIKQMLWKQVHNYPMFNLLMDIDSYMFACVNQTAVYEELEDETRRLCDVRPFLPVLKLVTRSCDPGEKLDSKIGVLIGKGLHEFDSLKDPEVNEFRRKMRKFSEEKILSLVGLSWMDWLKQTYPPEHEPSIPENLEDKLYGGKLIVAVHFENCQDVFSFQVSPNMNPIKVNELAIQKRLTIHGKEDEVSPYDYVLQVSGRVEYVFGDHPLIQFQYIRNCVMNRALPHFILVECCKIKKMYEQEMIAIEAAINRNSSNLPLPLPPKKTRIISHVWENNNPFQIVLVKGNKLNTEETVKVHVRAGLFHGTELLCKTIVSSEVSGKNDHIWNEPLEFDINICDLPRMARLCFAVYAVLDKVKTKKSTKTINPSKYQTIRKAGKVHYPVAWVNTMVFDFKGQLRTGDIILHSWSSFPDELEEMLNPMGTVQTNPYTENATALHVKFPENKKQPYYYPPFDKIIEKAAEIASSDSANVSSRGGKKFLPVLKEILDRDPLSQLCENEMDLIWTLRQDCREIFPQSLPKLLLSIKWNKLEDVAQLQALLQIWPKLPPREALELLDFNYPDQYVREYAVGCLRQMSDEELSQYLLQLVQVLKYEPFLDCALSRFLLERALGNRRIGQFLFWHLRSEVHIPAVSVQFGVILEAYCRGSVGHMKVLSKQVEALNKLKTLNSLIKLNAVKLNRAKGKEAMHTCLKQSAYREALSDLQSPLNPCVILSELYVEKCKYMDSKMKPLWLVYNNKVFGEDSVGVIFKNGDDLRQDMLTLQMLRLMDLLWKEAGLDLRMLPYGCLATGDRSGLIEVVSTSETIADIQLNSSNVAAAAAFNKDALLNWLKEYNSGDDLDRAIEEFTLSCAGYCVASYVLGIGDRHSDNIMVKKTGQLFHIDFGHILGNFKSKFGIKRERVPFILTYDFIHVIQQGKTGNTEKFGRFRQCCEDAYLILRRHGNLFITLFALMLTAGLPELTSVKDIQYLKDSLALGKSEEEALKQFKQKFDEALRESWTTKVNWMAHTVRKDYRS
T1 sequence (P27986 whole entry partner): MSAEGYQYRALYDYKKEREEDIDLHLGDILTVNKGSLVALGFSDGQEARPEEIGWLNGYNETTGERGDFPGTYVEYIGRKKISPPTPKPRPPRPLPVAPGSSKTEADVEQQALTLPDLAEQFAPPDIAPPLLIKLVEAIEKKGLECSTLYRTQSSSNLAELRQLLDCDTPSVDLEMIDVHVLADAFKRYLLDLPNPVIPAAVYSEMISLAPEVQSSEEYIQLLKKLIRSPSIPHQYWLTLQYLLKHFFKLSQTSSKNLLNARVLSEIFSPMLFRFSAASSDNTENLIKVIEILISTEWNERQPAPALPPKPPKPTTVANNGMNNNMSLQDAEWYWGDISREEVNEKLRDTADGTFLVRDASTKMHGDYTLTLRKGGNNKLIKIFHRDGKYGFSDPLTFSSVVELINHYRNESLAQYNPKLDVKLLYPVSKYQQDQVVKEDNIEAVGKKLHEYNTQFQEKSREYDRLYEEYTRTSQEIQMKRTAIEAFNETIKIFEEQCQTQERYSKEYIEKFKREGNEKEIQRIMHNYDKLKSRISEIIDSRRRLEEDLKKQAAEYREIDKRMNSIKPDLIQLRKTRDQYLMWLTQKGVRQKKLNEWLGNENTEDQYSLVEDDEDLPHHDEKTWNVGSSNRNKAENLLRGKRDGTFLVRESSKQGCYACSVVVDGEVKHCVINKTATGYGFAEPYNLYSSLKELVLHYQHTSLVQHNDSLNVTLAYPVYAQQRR
T2 sequence (P42336 whole entry): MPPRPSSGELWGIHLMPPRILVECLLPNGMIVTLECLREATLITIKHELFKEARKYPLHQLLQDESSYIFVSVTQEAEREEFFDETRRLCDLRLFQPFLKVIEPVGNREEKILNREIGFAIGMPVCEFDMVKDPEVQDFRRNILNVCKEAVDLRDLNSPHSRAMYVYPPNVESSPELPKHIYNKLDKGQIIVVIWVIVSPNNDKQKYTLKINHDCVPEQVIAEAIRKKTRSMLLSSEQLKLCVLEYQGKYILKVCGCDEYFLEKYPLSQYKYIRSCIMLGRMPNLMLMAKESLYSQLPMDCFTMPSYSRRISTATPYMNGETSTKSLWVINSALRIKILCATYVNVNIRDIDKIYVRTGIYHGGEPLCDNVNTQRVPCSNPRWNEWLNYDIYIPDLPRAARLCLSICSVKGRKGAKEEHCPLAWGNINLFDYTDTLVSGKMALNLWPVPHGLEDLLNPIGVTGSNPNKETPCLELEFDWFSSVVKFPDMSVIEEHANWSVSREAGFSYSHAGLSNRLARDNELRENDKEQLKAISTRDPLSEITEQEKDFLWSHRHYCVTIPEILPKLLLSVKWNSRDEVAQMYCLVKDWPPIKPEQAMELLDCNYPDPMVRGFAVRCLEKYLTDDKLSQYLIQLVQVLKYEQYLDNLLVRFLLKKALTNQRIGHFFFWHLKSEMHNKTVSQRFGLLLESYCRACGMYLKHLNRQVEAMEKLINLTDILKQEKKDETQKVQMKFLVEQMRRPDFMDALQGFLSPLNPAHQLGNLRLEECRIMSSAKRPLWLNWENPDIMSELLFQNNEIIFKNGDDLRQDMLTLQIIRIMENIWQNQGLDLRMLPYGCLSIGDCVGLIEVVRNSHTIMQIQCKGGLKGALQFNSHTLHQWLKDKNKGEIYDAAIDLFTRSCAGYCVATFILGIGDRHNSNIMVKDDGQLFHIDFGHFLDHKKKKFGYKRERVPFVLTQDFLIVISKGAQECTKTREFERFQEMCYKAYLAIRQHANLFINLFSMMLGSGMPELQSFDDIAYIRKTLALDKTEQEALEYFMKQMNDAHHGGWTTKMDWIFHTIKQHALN
T2 sequence (P27986 whole entry partner): as the sequence (P27986 whole entry partner) above
Method for PI3Kα: (§1) Full length p110 subunits of PI3K α, β and δ, N-terminally labeled with polyHis tag, can be co-expressed with p85 with Baculo virus expression vectors in sf9 insect cells. P110/p85 heterodimers can be purified by sequential Ni-NTA, Q-HP, Superdex-100 chromatography. Purified α, β and δ isozymes can be stored at −20° C. in 20 mM Tris, pH 8, 0.2M NaCl, 50% glycerol, 5 mM DTT, 2 mM Na cholate. […] The γ isozyme can be purified by sequential Ni-NTA, Superdex-200, Q-HP chromatography. The γ isozyme can be stored frozen at −80° C. in NaH2PO4, pH 8, 0.2M NaCl, 1% ethylene glycol, 2 mM β-mercaptoethanol.
(§2) In Vitro PI3 Kinase Enzyme Assays (PI3K Atploss)
(§3) PI3K enzyme assays (alpha, beta, delta and gamma) can be performed in 25 μL with the above final concentrations of components in white polyproplyene plates. Phosphatidyl inositol phosphoacceptor, PtdIns(4,5)P2 (eg. P4508) can be obtained from Echelon Biosciences, Salt Lake City, Utah. […] Test compounds can be dissolved in DMSO and diluted with three-fold serial dilutions. The compound in DMSO (1 μL) may be added per test well, and the inhibition relative to reactions containing no compound, with and without enzyme can be determined After assay incubation at RT, the reaction can be stopped and residual ATP can be determined by addition of an equal volume of a commercial ATP bioluminescence kit (Perkin Elmer EasyLite, Perkin Elmer, Waltham, Mass.) according to the manufacturer's instructions, and detected using an Analyst GT luminometer.
Method for PI3Kβ: as §1, §2, §3

Take `O=S(=O)(Nc1cc(-c2ccc3ncc(NCC4CCCNC4)nc3c2)cnc1Cl)c1ccc(F)cc1` (stereo not drawn) [Example 74, N-(2-chloro-5-(3-((3-piperidinylmethyl)amino)-6-quinoxalinyl)-3-pyridinyl)-4-fluorobenzenesulfonamide]: the half-maximal inhibitory concentration (IC50) (as a rule, the concentration at which inhibition is half-maximal) on PI3Kβ came out at 0.0463 µM; at PI3Kα, 0.0192 µM; in experiment [1], 2.63 µM.

With `COc1ccc(S(=O)(=O)Nc2cc(-c3ccc4ncccc4c3)cnc2Cl)cc1` [Example 47, N-(2-chloro-5-(6-quinolinyl)-3-pyridinyl)-4-methoxybenzenesulfonamide], the IC50 against PI3Kβ turned out to be 0.0249 µM; on PI3Kα it was 0.0417 µM; in experiment [1], 0.526 µM.

For `COc1ccnc2ccc(-c3cnc(Cl)c(NS(=O)(=O)c4ccc(F)cc4)c3)cc12` [Example 8, N-(2-chloro-5-(4-methoxy-6-quinolinyl)-3-pyridinyl)-4-fluorobenzenesulfonamide], the half-inhibitory concentration (IC50) against PI3Kβ worked out at 0.0147 µM; on PI3Kα, 0.0127 µM; in experiment [1] it was 0.222 µM.

As to `CNc1ccc2cc(-c3cnc(Cl)c(NS(=O)(=O)c4ccc(OC)cc4)c3)ccc2n1` [Example 48, N-(2-chloro-5-(2-(methylamino)-6-quinolinyl)-3-pyridinyl)-4-methoxybenzenesulfonamide], the results for the IC50 on PI3Kβ and at PI3Kα were 2.49 µM and 0.0954 µM, respectively.

Consider `COc1ccc(CNc2cnc3ccc(-c4cnc(Cl)c(NS(=O)(=O)c5ccc(F)cc5)c4)cc3n2)cc1` [Example 63, N-(2-chloro-5-(3-((4-methoxybenzyl)amino)-6-quinoxalinyl)-3-pyridinyl)-4-fluorobenzenesulfonamide], for which the IC50 against PI3Kβ stood at 0.0502 µM; at PI3Kα, 0.0056 µM; in experiment [1] it was 0.158 µM.

Regarding `CN(C)c1cc(-c2ccc3nccc(N4CCOCC4)c3c2)cnc1Cl` [Example 51, 2-chloro-N,N-dimethyl-5-(4-(4-morpholinyl)-6-quinolinyl)-3-pyridinamine], the IC50 on PI3Kβ was 2.46 µM; at PI3Kα, 0.179 µM.

For the compound `O=S(=O)(Nc1cc(-c2ccc3nnccc3c2)cnc1Cl)c1ccc(F)cc1` [Example 37, N-(2-chloro-5-(6-cinnolinyl)-3-pyridinyl)-4-fluorobenzenesulfonamide], the IC50 against PI3Kβ amounted to 0.212 µM; at PI3Kα, 0.0783 µM.

Take `CS(=O)(=O)Nc1cc(-c2ccc3nccc(N4CCOCC4)c3c2)cnc1Cl` [Example 11, N-(2-chloro-5-(4-(4-morpholinyl)-6-quinolinyl)-3-pyridinyl)methanesulfonamide]: the values for the IC50 (against PI3Kβ; at PI3Kα; in experiment [1]) were 0.156 µM, 0.0458 µM and 0.0501 µM, respectively.

For the compound `O=S(=O)(Nc1cc(-c2ccc3nccc(N4CCC(O)C4)c3c2)cnc1Cl)c1ccc(F)cc1` (stereo not drawn) [Example 26, N-(2-chloro-5-(4-(3-hydroxy-1-pyrrolidinyl)-6-quinolinyl)-3-pyridinyl)-4-fluorobenzenesulfonamide], the 50% inhibitory concentration (IC50) on PI3Kβ came to 0.0778 µM; at PI3Kα it was 0.0111 µM; in experiment [1] it was 2.96 µM.

For `Nc1nc2ccc(-c3cnc(Cl)c(NS(=O)(=O)c4ccc(F)cc4)c3)cc2[nH]c1=O` [Example 43, N-(5-(2-amino-3-oxo-3,4-dihydro-6-quinoxalinyl)-2-chloro-3-pyridinyl)-4-fluorobenzenesulfonamide], the half-maximal inhibitory concentration (IC50) against PI3Kβ was determined as 0.0648 µM; on PI3Kα it was 0.0169 µM; in experiment [1] it was 5.04 µM.

As for `OCc1cc(-c2ccc3nccc(N4CCOCC4)c3c2)cnc1Cl` [Example 14, (2-chloro-5-(4-(4-morpholinyl)-6-quinolinyl)-3-pyridinyl)methanol], the 50% inhibitory concentration (IC50) is 5.42 µM against PI3Kβ and 1.13 µM at PI3Kα.

In the case of `O=S(=O)(Nc1cc(-c2ccnc3cccnc23)cnc1Cl)c1ccc(F)cc1` [Example 42, N-(2-chloro-5-(1,5-naphthyridin-4-yl)-3-pyridinyl)-4-fluorobenzenesulfonamide], the IC50 amounted to 0.62 µM on PI3Kβ, 0.0875 µM at PI3Kα and 1.73 µM in experiment [1].

With `O=S(=O)(Nc1cc(-c2cnc3ncccc3c2)cnc1Cl)c1ccc(F)cc1` [Example 44, N-(2-chloro-5-(1,8-naphthyridin-3-yl)-3-pyridinyl)-4-fluorobenzenesulfonamide], the half-maximal inhibitory concentration (IC50) at PI3Kβ is 5.61 µM; at PI3Kα, 2.84 µM.

Turning to `CN(C)c1cc(-c2ccc3nccc(Cl)c3c2)cnc1Cl` [Example 52, 2-chloro-5-(4-chloro-6-quinolinyl)-N,N-dimethyl-3-pyridinamine], the figures for the IC50 on PI3Kβ and at PI3Kα were 2.24 µM and 0.43 µM, respectively.

As for `CN(C)c1cc(-c2ccc3ncccc3c2)cnc1Cl` [Example 13, 2-chloro-N,N-dimethyl-5-(6-quinolinyl)-3-pyridinamine], at PI3Kα, the IC50 amounted to 1.12 µM.

On to `NCc1cc(-c2ccc3nccc(N4CCOCC4)c3c2)cnc1Cl` [Example 16, 1-(2-chloro-5-(4-(4-morpholinyl)-6-quinolinyl)-3-pyridinyl)methanamine], for which the half-inhibitory concentration (IC50) is 26.7 µM on PI3Kβ and 3.53 µM on PI3Kα.

Take `O=S(=O)(Nc1cc(-c2ccc3nccc(N4CCN(Cc5ccccc5)CC4)c3c2)cnc1Cl)c1ccc(F)cc1` [Example 28, N-(5-(4-(4-benzyl-1-piperazinyl)-6-quinolinyl)-2-chloro-3-pyridinyl)-4-fluorobenzenesulfonamide]: the values for the IC50 against PI3Kβ and on PI3Kα were 0.0339 µM and 0.0062 µM, respectively.

Consider `CC(C)N1CCN(c2cnc3ccc(-c4cnc(Cl)c(NS(=O)(=O)c5ccc(F)cc5)c4)cc3n2)CC1` [Example 21, N-(2-chloro-5-(3-(4-(1-methylethyl)-1-piperazinyl)-6-quinoxalinyl)-3-pyridinyl)-4-fluorobenzenesulfonamide], for which the half-inhibitory concentration (IC50) at PI3Kα came out at 0.0054 µM; in experiment [1] it was 0.0115 µM.

With `CC(c1ccccc1)N1CCN(c2ccnc3ccc(-c4cnc(Cl)c(N(C)C)c4)cc23)CC1` (stereo not drawn) [Example 53, 2-chloro-N,N-dimethyl-5-(4-(4-(1-phenylethyl)-1-piperazinyl)-6-quinolinyl)-3-pyridinamine], the results for the IC50 against PI3Kβ and on PI3Kα were 4.22 µM and 0.294 µM, respectively.

As for `O=S(=O)(Nc1cc(-c2ccc3cnncc3c2)cnc1Cl)c1ccc(F)cc1` [Example 40, N-(2-chloro-5-(6-phthalazinyl)-3-pyridinyl)-4-fluorobenzenesulfonamide], the IC50 against PI3Kβ was 0.698 µM; on PI3Kα, 0.899 µM.

`CC(C)(C)C(=O)NCc1cc(-c2ccc3nccc(N4CCOCC4)c3c2)cnc1Cl` [Example 17, N-((2-chloro-5-(4-(4-morpholinyl)-6-quinolinyl)-3-pyridinyl)methyl)-2,2-dimethylpropanamide]: the IC50 on PI3Kβ came out at 27.4 µM; at PI3Kα, 3.11 µM.

On to `O=S(=O)(Nc1cc(-c2cccc3cnncc23)cnc1Cl)c1ccc(F)cc1` [Example 39, N-(2-chloro-5-(5-phthalazinyl)-3-pyridinyl)-4-fluorobenzenesulfonamide], for which the values for the half-maximal inhibitory concentration (IC50) on PI3Kβ and at PI3Kα were 4.12 µM and 1.9 µM, respectively.

As to `O=S(=O)(Nc1cc(-c2ccc3cccnc3c2)cnc1Cl)c1ccc(F)cc1` [Example 18, N-(2-chloro-5-(7-quinolinyl)-3-pyridinyl)-4-fluorobenzenesulfonamide], the values for the IC50 at PI3Kβ and at PI3Kα were 7.7 µM and 1.97 µM, respectively.

For `CN(Cc1ccccc1)c1cnc2ccc(-c3cnc(Cl)c(NS(=O)(=O)c4ccc(F)cc4)c3)cc2n1` [Example 65, N-(5-(3-(benzyl(methyl)amino)-6-quinoxalinyl)-2-chloro-3-pyridinyl)-4-fluorobenzenesulfonamide], the IC50 against PI3Kβ was 0.0303 µM; in experiment [1] it was 0.279 µM.

With `CC(=O)OCc1cc(-c2ccc3nccc(N4CCOCC4)c3c2)cnc1Cl` [Example 15, (2-chloro-5-(4-(4-morpholinyl)-6-quinolinyl)-3-pyridinyl)methyl acetate], the results for the half-maximal inhibitory concentration (IC50) against PI3Kβ and on PI3Kα were 3.67 µM and 1.39 µM, respectively.
